# Source: the NIST ThermoML archive (doi:10.1016/j.jct.2017.02.023)
# ± gives the expanded uncertainty stated by the source.
# Assays:
# [1] = refractive index (Na D-line) (dimensionless); xn = mol fraction of the nth substance listed; settings: 81.5 kPa, Liquid, Standard Abbe refractometry
# [2] = xn = mol fraction of the nth substance listed; settings: 81.5 kPa, Liquid, Vibrating tube method
structure (smiles),measurement,setting,value
CNC1CCCCC1 [N-methylcyclohexylamine] + CCCCCC(C)O,refractive index,"[1]; 298.15 K, x2 = 0",1.45306 ± 0.0016
same,refractive index,"[1]; 298.15 K, x2 = 0.0812",1.45091 ± 0.0016
same,refractive index,"[1]; 298.15 K, x2 = 0.1624",1.44856 ± 0.0016
same,refractive index,"[1]; 298.15 K, x2 = 0.2448",1.44622 ± 0.0016
same,refractive index,"[1]; 298.15 K, x2 = 0.3273",1.44391 ± 0.0016
same,refractive index,"[1]; 298.15 K, x2 = 0.4098",1.44151 ± 0.0016
same,refractive index,"[1]; 298.15 K, x2 = 0.486",1.43911 ± 0.0016
same,refractive index,"[1]; 298.15 K, x2 = 0.5764",1.43598 ± 0.0016
same,refractive index,"[1]; 298.15 K, x2 = 0.6517",1.43316 ± 0.0016
same,refractive index,"[1]; 298.15 K, x2 = 0.7435",1.42959 ± 0.0016
same,refractive index,"[1]; 298.15 K, x2 = 0.8282",1.42631 ± 0.0016
same,refractive index,"[1]; 298.15 K, x2 = 0.9132",1.423 ± 0.0016
same,refractive index,"[1]; 308.15 K, x2 = 0",1.44812 ± 0.0016
same,refractive index,"[1]; 308.15 K, x2 = 0.0812",1.44613 ± 0.0016
same,refractive index,"[1]; 308.15 K, x2 = 0.1624",1.44387 ± 0.0016
same,refractive index,"[1]; 308.15 K, x2 = 0.2448",1.44158 ± 0.0016
same,refractive index,"[1]; 308.15 K, x2 = 0.3273",1.43933 ± 0.0016
same,refractive index,"[1]; 308.15 K, x2 = 0.4098",1.43699 ± 0.0016
same,refractive index,"[1]; 308.15 K, x2 = 0.486",1.43464 ± 0.0016
same,refractive index,"[1]; 308.15 K, x2 = 0.5764",1.43158 ± 0.0016
same,refractive index,"[1]; 308.15 K, x2 = 0.6517",1.42882 ± 0.0016
same,refractive index,"[1]; 308.15 K, x2 = 0.7435",1.42534 ± 0.0016
same,refractive index,"[1]; 308.15 K, x2 = 0.8282",1.42213 ± 0.0016
same,refractive index,"[1]; 308.15 K, x2 = 0.9132",1.41886 ± 0.0016
same,refractive index,"[1]; 318.15 K, x2 = 0",1.4431 ± 0.0016
same,refractive index,"[1]; 318.15 K, x2 = 0.0812",1.44128 ± 0.0016
same,refractive index,"[1]; 318.15 K, x2 = 0.1624",1.4391 ± 0.0016
same,refractive index,"[1]; 318.15 K, x2 = 0.2448",1.43686 ± 0.0016
same,refractive index,"[1]; 318.15 K, x2 = 0.3273",1.43466 ± 0.0016
same,refractive index,"[1]; 318.15 K, x2 = 0.4098",1.43236 ± 0.0016
same,refractive index,"[1]; 318.15 K, x2 = 0.486",1.43007 ± 0.0016
same,refractive index,"[1]; 318.15 K, x2 = 0.5764",1.42708 ± 0.0016
same,refractive index,"[1]; 318.15 K, x2 = 0.6517",1.42438 ± 0.0016
same,refractive index,"[1]; 318.15 K, x2 = 0.7435",1.421 ± 0.0016
same,refractive index,"[1]; 318.15 K, x2 = 0.8282",1.41786 ± 0.0016
same,refractive index,"[1]; 318.15 K, x2 = 0.9132",1.41462 ± 0.0016
same,refractive index,"[1]; 328.15 K, x2 = 0",1.43809 ± 0.0016
same,refractive index,"[1]; 328.15 K, x2 = 0.0812",1.43645 ± 0.0016
same,refractive index,"[1]; 328.15 K, x2 = 0.1624",1.43432 ± 0.0016
same,refractive index,"[1]; 328.15 K, x2 = 0.2448",1.43214 ± 0.0016
same,refractive index,"[1]; 328.15 K, x2 = 0.3273",1.42997 ± 0.0016
same,refractive index,"[1]; 328.15 K, x2 = 0.4098",1.42773 ± 0.0016
same,refractive index,"[1]; 328.15 K, x2 = 0.486",1.4255 ± 0.0016
same,refractive index,"[1]; 328.15 K, x2 = 0.5764",1.42258 ± 0.0016
same,refractive index,"[1]; 328.15 K, x2 = 0.6517",1.41996 ± 0.0016
same,refractive index,"[1]; 328.15 K, x2 = 0.7435",1.41664 ± 0.0016
same,refractive index,"[1]; 328.15 K, x2 = 0.8282",1.41356 ± 0.0016
same,refractive index,"[1]; 328.15 K, x2 = 0.9132",1.41037 ± 0.0016
same,mass density,"[2]; 298.15 K, x2 = 0",865.2 ± 1.6 kg/m3
same,mass density,"[2]; 298.15 K, x2 = 0.0812",861.21 ± 1.6 kg/m3
same,mass density,"[2]; 298.15 K, x2 = 0.1624",857.38 ± 1.6 kg/m3
same,mass density,"[2]; 298.15 K, x2 = 0.2448",853.62 ± 1.6 kg/m3
same,mass density,"[2]; 298.15 K, x2 = 0.3273",849.83 ± 1.6 kg/m3
same,mass density,"[2]; 298.15 K, x2 = 0.4098",845.9 ± 1.6 kg/m3
same,mass density,"[2]; 298.15 K, x2 = 0.486",842.05 ± 1.6 kg/m3
same,mass density,"[2]; 298.15 K, x2 = 0.5764",837.18 ± 1.6 kg/m3
same,mass density,"[2]; 298.15 K, x2 = 0.6517",832.93 ± 1.6 kg/m3
same,mass density,"[2]; 298.15 K, x2 = 0.7435",827.66 ± 1.6 kg/m3
same,mass density,"[2]; 298.15 K, x2 = 0.8282",822.84 ± 1.6 kg/m3
same,mass density,"[2]; 298.15 K, x2 = 0.9132",818.13 ± 1.6 kg/m3
same,mass density,"[2]; 308.15 K, x2 = 0",856.57 ± 1.6 kg/m3
same,mass density,"[2]; 308.15 K, x2 = 0.0812",852.71 ± 1.6 kg/m3
same,mass density,"[2]; 308.15 K, x2 = 0.1624",848.98 ± 1.6 kg/m3
same,mass density,"[2]; 308.15 K, x2 = 0.2448",845.28 ± 1.6 kg/m3
same,mass density,"[2]; 308.15 K, x2 = 0.3273",841.57 ± 1.6 kg/m3
same,mass density,"[2]; 308.15 K, x2 = 0.4098",837.7 ± 1.6 kg/m3
same,mass density,"[2]; 308.15 K, x2 = 0.486",833.91 ± 1.6 kg/m3
same,mass density,"[2]; 308.15 K, x2 = 0.5764",829.14 ± 1.6 kg/m3
same,mass density,"[2]; 308.15 K, x2 = 0.6517",824.98 ± 1.6 kg/m3
same,mass density,"[2]; 308.15 K, x2 = 0.7435",819.81 ± 1.6 kg/m3
same,mass density,"[2]; 308.15 K, x2 = 0.8282",815.09 ± 1.6 kg/m3
same,mass density,"[2]; 308.15 K, x2 = 0.9132",810.46 ± 1.6 kg/m3
same,mass density,"[2]; 318.15 K, x2 = 0",847.67 ± 1.6 kg/m3
same,mass density,"[2]; 318.15 K, x2 = 0.0812",843.93 ± 1.6 kg/m3
same,mass density,"[2]; 318.15 K, x2 = 0.1624",840.27 ± 1.6 kg/m3
same,mass density,"[2]; 318.15 K, x2 = 0.2448",836.62 ± 1.6 kg/m3
same,mass density,"[2]; 318.15 K, x2 = 0.3273",832.96 ± 1.6 kg/m3
same,mass density,"[2]; 318.15 K, x2 = 0.4098",829.15 ± 1.6 kg/m3
same,mass density,"[2]; 318.15 K, x2 = 0.486",825.44 ± 1.6 kg/m3
same,mass density,"[2]; 318.15 K, x2 = 0.5764",820.75 ± 1.6 kg/m3
same,mass density,"[2]; 318.15 K, x2 = 0.6517",816.67 ± 1.6 kg/m3
same,mass density,"[2]; 318.15 K, x2 = 0.7435",811.59 ± 1.6 kg/m3
same,mass density,"[2]; 318.15 K, x2 = 0.8282",806.94 ± 1.6 kg/m3
same,mass density,"[2]; 318.15 K, x2 = 0.9132",802.36 ± 1.6 kg/m3
same,mass density,"[2]; 328.15 K, x2 = 0",838.68 ± 1.6 kg/m3
same,mass density,"[2]; 328.15 K, x2 = 0.0812",835.06 ± 1.6 kg/m3
same,mass density,"[2]; 328.15 K, x2 = 0.1624",831.44 ± 1.6 kg/m3
same,mass density,"[2]; 328.15 K, x2 = 0.2448",827.83 ± 1.6 kg/m3
same,mass density,"[2]; 328.15 K, x2 = 0.3273",824.22 ± 1.6 kg/m3
same,mass density,"[2]; 328.15 K, x2 = 0.4098",820.48 ± 1.6 kg/m3
same,mass density,"[2]; 328.15 K, x2 = 0.486",816.83 ± 1.6 kg/m3
same,mass density,"[2]; 328.15 K, x2 = 0.5764",812.23 ± 1.6 kg/m3
same,mass density,"[2]; 328.15 K, x2 = 0.6517",808.22 ± 1.6 kg/m3
same,mass density,"[2]; 328.15 K, x2 = 0.7435",803.21 ± 1.6 kg/m3
same,mass density,"[2]; 328.15 K, x2 = 0.8282",798.61 ± 1.6 kg/m3
same,mass density,"[2]; 328.15 K, x2 = 0.9132",794.07 ± 1.6 kg/m3
